Measurements reported in paper PMC4303524 (Organic & biomolecular chemistry, 2015).
Residue numbers refer to the chain shown, from its start. pEC50: −log10 of the molar value. Read-outs that look alike come from different tables or passages of the source.

Columns and labels:
LasR T115V = biological target: T1, LasR T115V (Pseudomonas aeruginosa, UniProt P25084, T115V); experiment: β-galactosidase reporter-gene assay, LasR activation; assay type: cell-based
T1 sequence (P25084 1-239 T115V): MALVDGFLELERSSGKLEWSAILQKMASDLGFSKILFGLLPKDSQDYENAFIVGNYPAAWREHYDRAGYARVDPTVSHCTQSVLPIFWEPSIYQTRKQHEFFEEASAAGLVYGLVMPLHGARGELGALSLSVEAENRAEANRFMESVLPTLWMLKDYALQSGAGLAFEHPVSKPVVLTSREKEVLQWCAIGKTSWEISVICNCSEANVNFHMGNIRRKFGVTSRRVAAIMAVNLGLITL

LasR T75V = biological target: T2, LasR T75V (Pseudomonas aeruginosa, UniProt P25084, T75V); experiment: as above; assay type: cell-based
T2 sequence (P25084 1-239 T75V): T1 sequence (P25084 1-239 T115V) with T75V, V115T

LasR S129A = biological target: T3, LasR S129A (Pseudomonas aeruginosa, UniProt P25084, S129A); experiment: as above; assay type: cell-based
T3 sequence (P25084 1-239 S129A): T1 sequence (P25084 1-239 T115V) with V115T, S129A

wild-type LasR [1] = biological target: T4, wild-type LasR (Pseudomonas aeruginosa, UniProt P25084); experiment: as above; assay type: cell-based; details: E. coli reporter, geometric mean of biological triplicates
T4 sequence (P25084 1-239): T1 sequence (P25084 1-239 T115V) with V115T

LasR W60F = biological target: T5, LasR W60F (Pseudomonas aeruginosa, UniProt P25084, W60F); experiment: as above; assay type: cell-based; details: for effect of mutation on LasR activation (in words): ligand at 100 nM
T5 sequence (P25084 1-239 W60F): T1 sequence (P25084 1-239 T115V) with W60F, V115T

LasR Y56F = biological target: T6, LasR Y56F (Pseudomonas aeruginosa, UniProt P25084, Y56F); experiment: as above; assay type: cell-based
T6 sequence (P25084 1-239 Y56F): T1 sequence (P25084 1-239 T115V) with Y56F, V115T

LasR R61M = biological target: T7, LasR R61M (Pseudomonas aeruginosa, UniProt P25084, R61M); experiment: as above; assay type: cell-based
T7 sequence (P25084 1-239 R61M): T1 sequence (P25084 1-239 T115V) with R61M, V115T

LasR Y93F = biological target: T8, LasR Y93F (Pseudomonas aeruginosa, UniProt P25084, Y93F); experiment: as above; assay type: cell-based
T8 sequence (P25084 1-239 Y93F): T1 sequence (P25084 1-239 T115V) with Y93F, V115T

LasR W88F = biological target: T9, LasR W88F (Pseudomonas aeruginosa, UniProt P25084, W88F); experiment: as above; assay type: cell-based
T9 sequence (P25084 1-239 W88F): T1 sequence (P25084 1-239 T115V) with W88F, V115T

LasR D73L = biological target: T10, LasR D73L (Pseudomonas aeruginosa, UniProt P25084, D73L); experiment: as above; assay type: cell-based
T10 sequence (P25084 1-239 D73L): T1 sequence (P25084 1-239 T115V) with D73L, V115T

wild-type LasR [2] = biological target: T4, wild-type LasR; details: read-out: EC50 value in wild-type LasR; cited from earlier work
[3] = E. coli reporter, geometric mean of biological triplicates

Compound: CCCCCCCCCC(=O)CC(=O)NC1CCSC1=O (centres unmarked) [Ligand 1]
- pEC50 (LasR T115V; [3]): 5.46
- pEC50 (LasR T75V; [3]): 9.30
- pEC50 (LasR S129A; [3]): 7.52
- pEC50 (wild-type LasR [1]): 8.30
- pEC50 (LasR W60F; [3]): 7.15
- pEC50 (LasR Y56F; [3]): 8.30
- pEC50 (LasR R61M; [3]): 7.10
- pEC50 (LasR Y93F; [3]): 8.00

Compound: CCCCCCCCCCCC(=O)N[C@H]1CCSC1=O [Ligand 5]
- effect of mutation on LasR activation (in words) (LasR T115V; ligand at 100 nM): destroyed LasR activation
- effect of mutation on LasR activation (in words) (LasR S129A; ligand at 100 nM): significantly decreased LasR activation
- effect of mutation on LasR activation (in words) (LasR W60F): significantly decreased LasR activation
- effect of mutation on LasR activation (in words) (LasR R61M; ligand at 100 nM): no significant effect

Compound: CCCCCCCCCC(=O)CC(=O)N[C@H]1CCOC1=O [OdDHL, N-(3-oxo)-dodecanoyl L-homoserine lactone, reference compound]
- maximal activation (% vs. wild-type) (LasR T115V; 100 μM OdDHL): 109%
- maximal activation (% vs. wild-type) (LasR T75V; 10 μM OdDHL, mean of biological triplicates): 106%
- maximal activation (% vs. wild-type) (LasR S129A; 10 μM OdDHL): 103%
- maximal activation (% vs. wild-type) (LasR W60F; 10 μM OdDHL): 73%
- maximal activation (% vs. wild-type) (LasR W88F; 10 μM OdDHL): 0%
- EC50 (LasR W88F; E. coli reporter): inactive
- maximal activation (% vs. wild-type) (LasR Y56F; 10 μM OdDHL): 102%
- maximal activation (% vs. wild-type) (LasR R61M; 10 μM OdDHL): 56%
- maximal activation (% vs. wild-type) (LasR Y93F; 10 μM OdDHL): 93%
- maximal activation (% vs. wild-type) (LasR D73L; 10 μM OdDHL): 0%
- EC50 (LasR D73L; E. coli reporter): inactive

Compound: CCCCCCCCCCCC(=O)N[C@H]1CCOC1=O [Ligand 4]
- effect of mutation on LasR activation (in words) (LasR T115V; ligand at 100 nM): destroyed LasR activation
- effect of mutation on LasR activation (in words) (LasR S129A; ligand at 100 nM): significantly decreased LasR activation
- effect of mutation on LasR activation (in words) (LasR W60F): significantly decreased LasR activation
- effect of mutation on LasR activation (in words) (LasR Y56F; ligand at 100 nM): small but significant impact
- effect of mutation on LasR activation (in words) (LasR R61M; ligand at 100 nM): perhaps only a slight effect
- pEC50 (wild-type LasR [2]): 7.40

Compound: CCCCCCCCCC(=O)CC(=O)Nc1ccccc1 [Ligand 3]
- activity in mutant LasR (activation, in words) (LasR W60F; ligand at 10 μM): moderate agonist
- activity in mutant LasR (activation, in words) (LasR Y56F; ligand at 10 μM): moderate agonist
- activity in mutant LasR (activation, in words) (LasR Y93F; ligand at 10 μM): flipped the activity of 3 into an agonist

Compound: CCCCCCCCCC(=O)CC(=O)NC1CCCC1 [Ligand 2]
- effect of mutation on LasR activation (in words) (LasR T115V; ligand at 10 μM): significantly detrimental
- effect of mutation on LasR activation (in words) (LasR S129A; ligand at 10 μM): significantly detrimental
- effect of mutation on LasR activation (in words) (LasR R61M; ligand at 10 μM): significantly detrimental
